Reference: PubChem BioAssay AID624395 (The Scripps Research Institute Molecular Screening Center, 2012)
Active and inactive are the calls of the source. How the calls were made is not given here.

What follows are compounds tested on cell-based VP16 transactivation luciferase luminescence (assay: compounds lowering VP16-driven reporter luminescence – cell-based, counter-screen for NR2E3 agonist project, dose response (AID 624395)).
`CC(Oc1ccc(Br)cc1)c1nc2c3ccccc3nc(=S)n2[nH]1` (stereo not drawn) gave an IC50 of 4.33 µM. `CCCCCc1c(-c2ccc(OC)c(OC)c2)ncn1CCc1ccccc1OC` gave an IC50 of 7.74 µM. `Cc1ccnc(NC(=O)CSc2cc(=O)n(C)c3ccccc23)c1` was tested, and the IC50 was 11 µM (inactive). In the case of `c1ccc(C(Cc2nc(-c3ccncc3)no2)c2ccccc2)cc1`, the IC50 is reported as 4.37 µM. In the case of `C#Cc1cccc(Nc2nc(NCc3ccccc3)nc3ccsc23)c1`, the IC50 is reported as 12.8 µM (inactive). `COc1ccc(C)cc1NC(=O)c1nnn(Cc2cccc(C(F)(F)F)c2)c1N` was tested, and the IC50 was > 39.8 µM (inactive). With `COc1cnc(-c2ccccn2)nc1Sc1ccccc1Cl` the IC50 was 4.92 µM. `CC(C)c1cc2c(c(O)c1O)[C@@]13CCCC(C)(C)C1CC2OC3=O` (stereo partly drawn) was tested, and the IC50 was > 39.9 µM (inactive). `COc1cc2nc(CN3CC=C(c4ccccc4)CC3)[nH]c(=O)c2cc1OC` gave an IC50 of 1.91 µM. For `O=C(C(=Cc1ccccc1)CN1CCCCC1)c1ccccc1`, the IC50 was 4.54 µM. For `NC(=O)c1nn(-c2ccccc2)nc1NC(=O)CSc1nnnn1-c1ccc(Cl)cc1`, the IC50 was > 39.8 µM (inactive). For `Cc1ccc(C#N)c(SCc2nnc(-c3ccc(Cl)cc3)o2)n1`, the IC50 was 0.0132 µM. In the case of `S=C(NN=Cc1ccccn1)Nc1ccccn1`, the IC50 is reported as 4.44 µM. `O=C(Nc1ccc(Cn2cccn2)cc1)c1ccc(COc2ccccc2Br)cc1` was tested, and the IC50 was > 39.8 µM (inactive). `Cc1cccc(C(=O)N[C@H](C(=O)Nc2ncc(C)s2)C(C)C)c1` was tested, and the IC50 was 12.1 µM (inactive). For `CN(C)c1ccc(/C=C/c2cc[n+](C)c3ccccc23)cc1`, the IC50 was 6.66 µM. `COc1ccc2c(CC(=O)Nc3ncc(C)s3)coc2c1` was tested, and the IC50 was > 39.8 µM (inactive). In the case of `NC1=C(Br)C(=O)c2ncccc2C1=O`, the IC50 is reported as 2.51 µM. Work on `OC[C@@H]1CN(Cc2ccc(-c3ccccc3)cc2)C[C@H](n2cnc3c(Nc4ccccc4)ncnc32)O1` yielded an IC50 of 5 µM. Work on `Cc1cccc(/C=N/Nc2cc(N3CCOCC3)nc(N3CCOCC3)n2)c1` yielded an IC50 of 5.91 µM. Work on `O=C(OCCOc1ccc(Cl)cc1)c1cc(S(=O)(=O)N2CCCCC2)ccc1N1CCOCC1` yielded an IC50 of 8.66 µM. Work on `Cc1cccc(Cc2cnc(N3C(=N)SC(C)C3=O)s2)c1` (stereo not drawn) yielded an IC50 of 4.96 µM. `N#C/C(=C\c1ccc(Sc2nc3ccccc3[nH]2)o1)c1ccccc1` showed an IC50 of 4.65 µM. In the case of `Cc1ccnc(NC(=S)N2CCN(c3cccc(C(F)(F)F)c3)CC2)c1`, the IC50 is reported as 12.3 µM (inactive). For `OC[C@@H]1CN(Cc2ccc(-c3ccccc3)cc2)C[C@H](n2cnc3c(NCc4ccncc4)ncnc32)O1`, the IC50 was 4.44 µM. Work on `O=S(=O)(NC1CCCC1)c1ccc(S(=O)(=O)N2CCc3ccccc32)cc1` yielded an IC50 of 4.59 µM. `CCc1nnc(NC(=O)c2ccc(S(=O)(=O)N3CCCc4ccccc43)cc2)o1` showed an IC50 of 6.8 µM. `CCc1cc(OCCCSc2nc(C)cc(=O)[nH]2)ccc1Cl` showed an IC50 of 7.05 µM. With `O=NN(CC(=O)NNc1ccccc1)CC(=O)NNc1ccccc1` the IC50 was 23.2 µM (inactive). `CCN(c1ccccc1)S(=O)(=O)c1ccc(C(=O)Nc2nnc(CSC)o2)cc1` was tested, and the IC50 was 12.7 µM (inactive). Work on `COc1ccc(C[C@@H]2OC3(C=CC(=O)C=C3)O[C@H]2Cc2ccc(OC)cc2)cc1` yielded an IC50 of 0.845 µM. For `Cc1ccc(NC(=O)CNC(=O)c2cccc(C)c2)nc1`, the IC50 was 26 µM (inactive). Work on `O=C(CSc1nnnn1-c1ccc(O)cc1)Nc1ccc(N2CCOCC2)c(Cl)c1` yielded an IC50 of 4.47 µM. Work on `Cc1cnc(NC(=O)CN2CCN(c3ccccn3)CC2)s1` yielded an IC50 of 9.56 µM. `Cc1ccc(OCCOC(=O)c2cc(S(=O)(=O)N3CCCCC3)ccc2N2CCOCC2)cc1` gave an IC50 of 8.95 µM. Work on `O=C(CSc1nnnn1-c1ccccc1)Nc1nsc(-c2ccc(Cl)cc2)n1` yielded an IC50 of 0.833 µM. For `COc1ccc(C)cc1NC(=O)NC1CC(=O)N(c2ccc3c(c2)OCCO3)C1` (stereo not drawn), the IC50 was 20.3 µM (inactive). With `N#Cc1c(-c2ccccc2)cc(-c2ccccc2)nc1SCCC(=O)O` the IC50 was 31.5 µM (inactive). With `O=C(OC(c1ccccc1)c1nccc2ccccc12)c1ccccc1` (stereo not drawn) the IC50 was 0.242 µM. Work on `C[C@H]1CCC/C=C/[C@@H]2C[C@H](O)C[C@H]2[C@H](O)[C@H](S(=O)c2ccc(O)cc2)CC(=O)O1` (stereo partly drawn) yielded an IC50 of 3.52 µM. `COc1ccc(NC(=O)/C(Cl)=C(/Cl)S(=O)Cc2ccccc2)cn1` (stereo not drawn) showed an IC50 of 2.1 µM. In the case of `Cc1onc(-c2ccccc2Cl)c1C(=O)Nc1nc2c(s1)CCCC2`, the IC50 is reported as > 39.8 µM (inactive). In the case of `COc1cc2c(oc(=O)c3cc(C)cc(OC)c32)c2c(C3OC(C)C(O)C(C)(O)C3O)ccc(O)c12` (stereo not drawn), the IC50 is reported as 7.6 µM. `CCC(Sc1nc(C)cc(=O)[nH]1)C(=O)Nc1sc2c(c1C#N)CCCC2` (stereo not drawn) was tested, and the IC50 was 5.06 µM. For `CC(C)(C)c1ccc(CSc2nc(N)cc(=O)[nH]2)cc1`, the IC50 was 4.53 µM. In the case of `COCCCNC(=S)N1CCN(c2nc(-c3ccc(Cl)cc3)cs2)CC1`, the IC50 is reported as 10.6 µM (inactive). With `CC(=O)N1c2ccc(S(=O)(=O)N3CCC(C(=O)Nc4cccc(Cl)c4)CC3)cc2CC1C` (stereo not drawn) the IC50 was 6.45 µM. With `CC(=O)Nc1ccc(Sc2ccc([N+](=O)[O-])o2)cc1` the IC50 was 18.3 µM (inactive). For `Cc1ccc(S(=O)(=O)N2[C@@H](c3ccc(Cl)c(Cl)c3)C(C(=O)O)=C[C@H]2CC2CCCC2)cc1`, the IC50 was 12 µM (inactive). Compound `Cc1cccc(NS(=O)(=O)c2ccc(-c3cnc(C4CC4)o3)cc2)c1C` has an IC50 of 5.28 µM. With `COc1ccc(S(=O)(=O)N2CCCCC2)cc1NC(=S)Nc1cccc(Cl)c1C` the IC50 was > 39.8 µM (inactive). Compound `O=C(COc1cccc2ccccc12)Nc1ccc(Cl)cc1C(=O)O` has an IC50 of 4.04 µM. In the case of `O=C(/C=C/c1ccc([N+](=O)[O-])o1)NNC(=O)c1ccc(F)cc1`, the IC50 is reported as 24.2 µM (inactive). In the case of `Oc1[nH]c2ccccc2c1N=NC(=S)N1CCOCC1`, the IC50 is reported as > 39.9 µM (inactive). `CC1CC(C)C(=NNC(N)=O)C(C(O)CC2CCC(=O)NC2=O)C1` (stereo not drawn) showed an IC50 of 4.07 µM. `C=CCn1c(C)cc(C(=O)CN2C(=O)c3ccccc3S2(=O)=O)c1C` gave an IC50 of 2.31 µM. In the case of `CN(C)c1ccc(/C=C/c2ccc3ccccc3[n+]2C)cc1`, the IC50 is reported as 13 µM (inactive). For `Nc1nc(-c2ccccn2)nc(N)c1Cc1ccc(Cl)cc1Cl`, the IC50 was 4.59 µM. For `c1ccc(-c2cc(CSc3nc4ccccc4[nH]3)on2)cc1`, the IC50 was 2.69 µM. With `Cc1ccc(CN2CC(C(=O)Nc3ncc(C)s3)CC2=O)cc1` (stereo not drawn) the IC50 was > 39.8 µM (inactive). In the case of `Cc1cc(C(=O)CSc2nnc3ccccn23)c(C)n1-c1ccccc1`, the IC50 is reported as 25.7 µM (inactive). For `Cc1cc(C)cc(NC(=O)CCc2nc3sc4c(c3c(=O)[nH]2)CCCC4)c1`, the IC50 was > 39.8 µM (inactive). With `C=C1C(=O)O[C@@H]2C[C@@H](C)[C@@H]3C=CC(=O)[C@@]3(C)[C@@H](O)[C@H]12` the IC50 was 4.37 µM. For `Cc1cc(NC(=O)CSc2nc3c(sc4ccccc43)c(=O)n2CCCN2CCOCC2)n[nH]1`, the IC50 was > 39.8 µM (inactive). Compound `COC(CNC(=O)CSCc1nc(-c2ccc(SC)cc2)oc1C)OC` has an IC50 of 2.61 µM. For `O=C(Nc1cccc(OC(F)(F)F)c1)C1Cc2c(-c3ccc4c(c3)OCO4)ccnc2O1` (stereo not drawn), the IC50 was 14.4 µM (inactive). `Brc1ccc(N/N=C(/N=Nc2nn[nH]n2)c2ccccc2)cc1` was tested, and the IC50 was 12.8 µM (inactive). For `Cc1ccc(S(=O)(=O)N(CC(=O)Nc2ccccc2C(=O)O)c2cccc(Cl)c2C)cc1`, the IC50 was 18.8 µM (inactive). `CCC1(OC(=O)CN(C)C)C(=O)OCc2c1cc1n(c2=O)Cc2cc3c(N)cccc3nc2-1` (stereo not drawn) was tested, and the IC50 was 2.99 µM. `Nc1nc(-c2ccccn2)nc(N)c1Cc1c(F)cccc1Cl` gave an IC50 of 2.69 µM. Work on `COc1ccc([C@@H]2C[C@H]3[C@@H](CN2S(=O)(=O)c2ccccc2)C(=O)C[C@@H](c2cccc(Cl)c2)N3S(=O)(=O)c2ccc(C)cc2)cc1` yielded an IC50 of 4.51 µM. `Clc1cc2cccnc2c2ncccc12` was tested, and the IC50 was 12.1 µM (inactive). Work on `COc1ccccc1C(=O)Nc1nc2ccccc2[nH]1` yielded an IC50 of 5.03 µM. For `c1coc(CNc2ncnc3ccccc23)c1`, the IC50 was 4.45 µM. `Cc1cc2sc3ccc(C#CC4(O)CCCCC4)cc3c(=O)c2cc1C` showed an IC50 of 0.00878 µM. In the case of `CCCCCCCCCCCCN1[C@@H](CC(=O)O)c2cc(F)ccc2S1(=O)=O`, the IC50 is reported as 8.51 µM. For `Cc1c(C(=O)Nc2ccc(Oc3ccccc3)cc2)sc2nc3n(c(=O)c12)CCC3`, the IC50 was 5.11 µM. In the case of `O=C(CSc1nnnn1-c1ccc2c(c1)OCCO2)Nc1nc2c(s1)CCCC2`, the IC50 is reported as > 39.8 µM (inactive). `O=[N+]([O-])c1ccc(NS(=O)(=O)c2ccccc2)c(Cl)c1` showed an IC50 of 4.38 µM. In the case of `N=C1SCC(=O)N1c1ncc(Cc2ccccc2Cl)s1`, the IC50 is reported as 10.5 µM (inactive). In the case of `O=c1c(Cl)c(N2CCN(c3ccc(F)cc3)CC2)cnn1C12CC3CC(CC(C3)C1)C2`, the IC50 is reported as 38.2 µM (inactive). In the case of `O=S(=O)(/C(=C\c1ccc(C(F)(F)F)cc1)c1nc2ccccc2[nH]1)c1ccccc1`, the IC50 is reported as 10.8 µM (inactive). In the case of `COc1ccc(NC2c3ccccc3C(=O)N2Cc2ccccc2Cl)cc1OC` (stereo not drawn), the IC50 is reported as > 39.8 µM (inactive). `O=C(c1cc(S(=O)(=O)N2CCN(c3ccccc3)CC2)ccc1Cl)N1CCCCCCC1` showed an IC50 of 2.51 µM. Compound `CCOc1ccc(-c2nc(CSCC(=O)N3CCN(c4cccc(OC)c4)CC3)c(C)o2)cc1` has an IC50 of 3.02 µM. For `COc1ccc(OC)c(NC(=O)CSc2nnnn2-c2ccc3c(c2)OCO3)c1`, the IC50 was 3.36 µM. With `Cc1ccc(S(=O)(=O)c2ccc([N+](=O)[O-])o2)cc1` the IC50 was 6.32 µM. For `COc1ccc(S(=O)(=O)N2CCCCC2)cc1NC(=S)Nc1ccccc1`, the IC50 was > 39.8 µM (inactive). Work on `C=C(C(=O)c1ccccc1)C(NC(C)(C)C)c1ccccc1` (stereo not drawn) yielded an IC50 of 5.27 µM. `CC(C(=O)N1CCN(c2ccc(Cl)cc2)CC1)c1ncc(C(F)(F)F)cc1Cl` (stereo not drawn) was tested, and the IC50 was 7.28 µM. In the case of `C=C1C(=O)OC2CC(C)C3C=CC(=O)C3(C)C(O)C12` (stereo not drawn), the IC50 is reported as 10.5 µM (inactive). In the case of `CN1CCN(C(=O)c2cccc(-c3cnc4cnc(-c5ccccc5Oc5ccccc5)cn34)c2)CC1`, the IC50 is reported as 12.7 µM (inactive). Work on `CCNc1nc2c(c(=O)n(C)c(=O)n2C)n1Cc1ccc(Cl)cc1` yielded an IC50 of 6.02 µM. `COc1ccc(-n2c(C)cc(C(=O)COC(=O)c3ccc(O)cc3O)c2C)cc1` gave an IC50 of 4.48 µM. `CN1C2CCC1/C(=C/c1ccccn1)C(=O)/C2=C\c1ccccn1` gave an IC50 of 4.5 µM. With `CCC1(C)Cc2c(sc3[nH]c(=S)n(Cc4ccccc4)c(=O)c23)CO1` (stereo not drawn) the IC50 was 12.1 µM (inactive). In the case of `CCC(=O)N1CCCc2cc(S(=O)(=O)N3CCN(c4ccccn4)CC3)ccc21`, the IC50 is reported as 22.5 µM (inactive). In the case of `CCCOc1ccc(CSc2nc3ccccc3[nH]2)cc1`, the IC50 is reported as 13.3 µM (inactive). In the case of `Cc1nn(Cc2cccc(F)c2)c(C)c1NC(=O)c1ccc(COc2ccccc2Cl)cc1`, the IC50 is reported as 11.7 µM (inactive). With `Cc1ccnc(NC(=O)Cc2ccc(-c3ccccc3)cc2)c1` the IC50 was > 39.8 µM (inactive). With `Cc1nc2ccc(S(=O)(=O)Nc3cccc(-c4nc5cccnc5s4)c3)cc2s1` the IC50 was 7.12 µM. In the case of `O=c1cc(N2CCN(c3cccc(Cl)c3)CC2)[nH]c(=O)n1C1CCCCC1`, the IC50 is reported as > 39.8 µM (inactive). Work on `CSC(=Nc1ccccc1)N=C(SCc1ccccc1)N(C)C` yielded an IC50 of 4.06 µM.
